Like-named read-outs stand apart in the source and are kept apart here.
Columns and labels:
[1] = test system: HCV genotype 1a (H77 strain) replicon in HUH-7 cells; assay: HCV replicon luciferase reporter assay, genotype 1a; type: cell-based; conditions: Hepatitis C virus, Huh-7, 72 h, 3 days incubation, read-out: LE_1a (EC50, range)
Outline: (§1)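 Replicon inhibition for both genotypes was measured as Renilla luciferase signal (EnduRen, 7.5 μM final, 2 h) after 3-day, 37° C exposure of replicon-bearing HUH-7 cells in 4% FCS DMEM, 0.5% DMSO. The 1b construct carries S1179I; the 1a H77 construct carries P1496L and S2204I. Twenty-point, 3-fold dilutions were fitted four-parametrically for EC50, and CC50 was taken from multiplexed Cell Titer-Blue.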

[2] = test system: HCV genotype 1b (Con1) replicon in HUH-7 cells; assay: HCV replicon luciferase reporter assay, genotype 1b; type: cell-based; conditions: Hepatitis C virus, Huh-7, 72 h, 3 days incubation, read-out: LE_1b (EC50, range)
Outline: as §1

[3] = HCV genotype 1a replicon luciferase
[4] = HCV genotype 1b replicon luciferase
[5] = GETYPE1A, HCV genotype 1a replicon luciferase
[6] = GETYPE1B, HCV genotype 1b replicon luciferase
[7] = HCV genotype 1a replicon luciferase assay, range class
[8] = HCV genotype 1b replicon luciferase assay, range class

Structure (SMILES) | EC50 [1, 3] [nM] | EC50 [2, 4] [nM] | other results
COc1ccc2c(O[C@@H]3C[C@H]4C(=O)N[C@]5(C(=O)NS(=O)(=O)C6(C)CC6)C[C@H]5/C=C\CC[C@H](C)C[C@@H](C)[C@H](NC(=O)OC(C)(C)C)C(=O)N4C3)nc(-c3ccc(OC(C)C)nc3)cc2c1 [Compound 5222, tert-butyl ((2R,6S,7R,9S,13aS,14aR,16aS,Z)-2-((3-(6-isopropoxypyridin-3-yl)-6-methoxyisoquinolin-1-yl)oxy)-7,9-dimethyl-14a-(((1-methylcyclopropyl)sulfonyl)carbamoyl)-5,16-dioxo-1,2,3,5,6,7,8,9,10,11,13a,14,14a,15,16,16a-hexadecahydrocyclopropa[e]pyrrolo[1,2-a][1,4]diazacyclopentadecin-6-yl)carbamate] | 4.82 to 103 | < 5.46 | –
CC[C@@H]1C[C@H](C)CC/C=C\[C@@H]2C[C@@]2(C(=O)NS(=O)(=O)C2(C)CC2)NC(=O)[C@@H]2C[C@@H](Oc3nc(OC)cc4cc(OC)c(F)cc34)CN2C(=O)[C@H]1NC(=O)OC(C)(C)C(F)(F)F [Compound 1187] | – | – | EC50 [1, 5]: 5.01 to 35 nM; EC50 [2, 6]: 1.01 to 5 nM
CCn1nc(O[C@@H]2C[C@H]3C(=O)N[C@]4(C(=O)NS(=O)(=O)C5(C)CC5)C[C@H]4/C=C\CC[C@H](C)C[C@@H](C)[C@H](NC(=O)OC(C)(C)C)C(=O)N3C2)c2ccccc2c1=O [Compound 5064, tert-butyl ((2R,6S,7R,9S,13aS,14aR,16aS,Z)-2-((3-ethyl-4-oxo-3,4-dihydrophthalazin-1-yl)oxy)-7,9-dimethyl-14a-(((1-methylcyclopropyl)sulfonyl)carbamoyl)-5,16-dioxo-1,2,3,5,6,7,8,9,10,11,13a,14,14a,15,16,16a-hexadecahydrocyclopropa[e]pyrrolo[1,2-a][1,4]diazacyclopentadecin-6-yl)carbamate] | > 87.4 | 4.82 to 103 | –
CCOc1nnc(O[C@@H]2C[C@H]3C(=O)N[C@]4(C(=O)NS(=O)(=O)C5CC5)C[C@H]4/C=C\CC[C@H](C)C[C@@H](C)[C@H](NC(=O)OC(C)(C)C)C(=O)N3C2)c2ccccc12 [Compound 5034, tert-butyl ((2R,6S,7R,9S,13aS,14aR,16aS,Z)-14a-((cyclopropylsulfonyl)carbamoyl)-2-((4-ethoxyphthalazin-1-yl)oxy)-7,9-dimethyl-5,16-dioxo-1,2,3,5,6,7,8,9,10,11,13a,14,14a,15,16,16a-hexadecahydrocyclopropa[e]pyrrolo[1,2-a][1,4]diazacyclopentadecin-6-yl)carbamate] | 4.82 to 103 | 4.82 to 103 | –
CCOc1cc2ccnc(O[C@@H]3C[C@H]4C(=O)N[C@]5(C(=O)NS(=O)(=O)C6CC6)C[C@H]5/C=C\CC[C@@H](C)C[C@@H](C)[C@H](NC(=O)OC(C)(C)C(C)(F)F)C(=O)N4C3)c2cc1F [Compound 5403, 3,3-difluoro-2-methylbutan-2-yl((2R,6S,7R,9R,13aS,14aR,16aS,Z)-14a-((cyclopropylsulfonyl)carbamoyl)-2-((6-ethoxy-7-fluoroisoquinolin-1-yl)oxy)-7,9-dimethyl-5,16-dioxo-1,2,3,5,6,7,8,9,10,11,13a,14,14a,15,16,16a-hexadecahydrocyclopropa[e]pyrrolo[1,2-a][1,4]diazacyclopentadecin-6-yl)carbamate] | 0.51 to 1 | 0.1 to 0.5 | –
COc1ccc2c(O[C@@H]3C[C@H]4C(=O)N[C@]5(C(=O)NS(=O)(=O)C6(CF)CC6)C[C@H]5/C=C\CC[C@@H](C)C[C@@H](C)[C@H](NC(=O)O[C@]5(C(F)(F)F)CCCOC5)C(=O)N4C3)nc(-c3ccc(OC(C)C)cc3)cc2c1 [Compound 1184] | – | – | EC50 [1, 5]: 1.01 to 5 nM; EC50 [2, 6]: 1.01 to 5 nM
COc1ccc2c(O[C@@H]3C[C@H]4C(=O)N[C@]5(C(=O)NS(=O)(=O)C6(F)CC6)C[C@H]5/C=C\CC[C@@H](C)C[C@@H](C)[C@H](NC(=O)OC(C)(C)C(F)(F)F)C(=O)N4C3)ncc(Cl)c2c1 [Compound 4028] | – | – | EC50 [1, 5]: < 5.46 nM; EC50 [2, 6]: < 5.46 nM
CCOc1ccc2c(O[C@@H]3C[C@H]4C(=O)N[C@]5(C(=O)NS(=O)(=O)C6(C)CC6)C[C@H]5/C=C\CC[C@@H](C)C[C@@H](C)[C@H](NC(=O)OC(C)(C)C)C(=O)N4C3)nccc2c1 [Compound 5134, tert-butyl ((2R,6S,7R,9R,13aS,14aR,16aS,Z)-2-((6-ethoxyisoquinolin-1-yl)oxy)-7,9-dimethyl-14a-(((1-methylcyclopropyl)sulfonyl)carbamoyl)-5,16-dioxo-1,2,3,5,6,7,8,9,10,11,13a,14,14a,15,16,16a-hexadecahydrocyclopropa[e]pyrrolo[1,2-a][1,4]diazacyclopentadecin-6-yl)carbamate] | < 5.46 | < 5.46 | –
CCCOc1cnc(O[C@@H]2C[C@H]3C(=O)N[C@]4(C(=O)NS(=O)(=O)C5(C)CC5)C[C@H]4/C=C\CC[C@@H](C)C[C@@H](C)[C@H](NC(=O)O[C@@H]4C[C@@H]5C[C@@H]5C4)C(=O)N3C2)c2ccccc12 [Compound 5081, (1R,3r,5S)-bicyclo[3.1.0]hexan-3-yl((2R,6S,7R,9R,13aS,14aR,16aS,Z)-7,9-dimethyl-14a-(((1-methylcyclopropyl)sulfonyl)carbamoyl)-5,16-dioxo-2-((4-propoxyisoquinolin-1-yl)oxy)-1,2,3,5,6,7,8,9,10,11,13a,14,14a,15,16,16a-hexadecahydrocyclopropa[e]pyrrolo[1,2-a][1,4]diazacyclopentadecin-6-yl)carbamate] | 4.82 to 103 | < 5.46 | –
COc1ccc2c(O[C@@H]3C[C@H]4C(=O)N[C@]5(C(=O)NS(=O)(=O)C6(C)CC6)C[C@H]5/C=C\CC[C@@H](C)C[C@@H](C)[C@H](NC(=O)OC(C)(C)C(F)(F)F)C(=O)N4C3)nc(N3CCCC3)cc2c1 [Compound 3119, 1,1,1-trifluoro-2-methylpropan-2-yl((2R,6S,7R,9R,13aS,14aR,16aS,Z)-2-((6-methoxy-3-(pyrrolidin-1-yl)isoquinolin-1-yl)oxy)-7,9-dimethyl-14a-(((1-methylcyclopropyl)sulfonyl)carbamoyl)-5,16-dioxo-1,2,3,5,6,7,8,9,10,11,13a,14,14a,15,16,16a-hexadecahydrocyclopropa[e]pyrrolo[1,2-a][1,4]diazacyclopentadecin-6-yl)carbamate] | – | – | EC50 [1, 7]: < 5.46 nM; EC50 [2, 8]: < 5.46 nM
COc1ccc2c(O[C@@H]3C[C@H]4C(=O)N[C@]5(C(=O)NS(=O)(=O)C6(C)CC6)C[C@H]5/C=C\CC[C@@H](C)C[C@@H](C)[C@H](NC(=O)OC(C)(C)C)C(=O)N4C3)ncc(F)c2c1 [Compound 4374, tert-butyl ((2R,6S,7R,9R,13aS,14aR,16aS,Z)-2-((4-fluoro-6-methoxyisoquinolin-1-yl)oxy)-7,9-dimethyl-14a-(((1-methylcyclopropyl)sulfonyl)carbamoyl)-5,16-dioxo-1,2,3,5,6,7,8,9,10,11,13a,14,14a,15,16,16a-hexadecahydrocyclopropa[e]pyrrolo[1,2-a][1,4]diazacyclopentadecin-6-yl)carbamate] | 1.01 to 5 | 0.1 to 0.5 | –
COc1ccc2c(O[C@@H]3C[C@H]4C(=O)N[C@]5(C(=O)NS(=O)(=O)C6(CF)CC6)C[C@H]5/C=C\CC[C@H](C)C[C@@H](C)[C@H](NC(=O)OC(C)(C)C)C(=O)N4C3)nc(Cl)cc2c1 [Compound 1162, tert-butyl ((2R,6S,7R,9S,13aS,14aR,16aS,Z)-2-((3-chloro-6-methoxyisoquinolin-1-yl)oxy)-14a-(((1-(fluoromethyl)cyclopropyl)sulfonyl)carbamoyl)-7,9-dimethyl-5,16-dioxo-1,2,3,5,6,7,8,9,10,11,13a,14,14a,15,16,16a-hexadecahydrocyclopropa[e]pyrrolo[1,2-a][1,4]diazacyclopentadecin-6-yl)carbamate] | – | – | EC50 [1, 7]: 4.82 to 103 nM; EC50 [2, 8]: 4.82 to 103 nM

Source: patent publication US9499550B2 (BRISTOL-MYERS SQUIBB COMPANY, priority 2012, dated 2016)
